Each structure is given as a SMILES string.

For the first assay, the target named is T1, PI3K beta (Homo sapiens, UniProt P42338).
T1 construct: for the full-length p110-b subunit are generated and fused by overlapping PCR; His tag (C); made in house; host or cells: baculovirus BV949; Tn5 (Trichoplusia ni) or TiniPro insect cells
T1 sequence (P42338 with tags, fused parts or gaps limits assumed): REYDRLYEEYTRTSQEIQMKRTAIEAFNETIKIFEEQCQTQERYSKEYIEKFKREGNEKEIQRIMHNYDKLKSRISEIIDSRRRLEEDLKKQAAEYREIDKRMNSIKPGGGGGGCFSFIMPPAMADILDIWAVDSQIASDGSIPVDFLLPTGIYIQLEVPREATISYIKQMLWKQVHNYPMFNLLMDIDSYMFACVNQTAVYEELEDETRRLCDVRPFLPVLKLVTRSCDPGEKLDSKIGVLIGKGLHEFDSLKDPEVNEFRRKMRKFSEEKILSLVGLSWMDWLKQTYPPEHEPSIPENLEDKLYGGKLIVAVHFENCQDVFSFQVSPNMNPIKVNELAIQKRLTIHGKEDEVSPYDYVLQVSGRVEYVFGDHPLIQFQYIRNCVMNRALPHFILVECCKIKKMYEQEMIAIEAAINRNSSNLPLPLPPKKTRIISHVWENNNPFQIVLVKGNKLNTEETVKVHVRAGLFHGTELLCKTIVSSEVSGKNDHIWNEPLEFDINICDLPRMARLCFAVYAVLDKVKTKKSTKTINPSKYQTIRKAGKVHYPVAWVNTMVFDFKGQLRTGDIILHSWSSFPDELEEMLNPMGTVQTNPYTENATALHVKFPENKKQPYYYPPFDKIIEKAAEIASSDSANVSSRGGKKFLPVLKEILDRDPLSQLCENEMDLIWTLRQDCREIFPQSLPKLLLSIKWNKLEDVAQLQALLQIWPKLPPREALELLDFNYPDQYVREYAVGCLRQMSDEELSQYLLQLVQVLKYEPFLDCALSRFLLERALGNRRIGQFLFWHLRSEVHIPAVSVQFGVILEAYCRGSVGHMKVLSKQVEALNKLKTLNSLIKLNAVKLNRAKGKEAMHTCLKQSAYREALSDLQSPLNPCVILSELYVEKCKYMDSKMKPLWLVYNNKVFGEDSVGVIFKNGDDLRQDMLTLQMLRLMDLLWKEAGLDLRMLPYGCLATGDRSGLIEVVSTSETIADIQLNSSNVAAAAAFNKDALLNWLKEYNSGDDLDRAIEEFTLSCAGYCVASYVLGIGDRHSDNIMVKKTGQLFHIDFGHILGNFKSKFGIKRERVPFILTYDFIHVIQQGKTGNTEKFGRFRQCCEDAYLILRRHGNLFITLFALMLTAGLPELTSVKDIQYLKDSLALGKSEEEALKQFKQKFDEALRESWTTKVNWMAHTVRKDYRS
The assay can be described thus: PI3K beta kinase assay (Kinase-Glo luminescence). Type of assay: biochemical. The note with it: read-out: EPK_PI3Kbeta/IC50. In a few lines: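 PI3Kβ construct BV949 (p85 iSH2–p110β full-length, C-His), 25 nM, reacted with 1 μM ATP and 10 μg/mL phosphatidylinositol in Tris pH 7.5, MgCl2, NaCl, CHAPS, DTT buffer, 60 min at room temperature. Remaining ATP by Kinase-Glo luminescence; IC50 from 4-parameter logistic fit of 8 concentrations.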
Background: In Kinase-Glo more light means more ATP remaining.
For `CCOc1cc(-c2ccc3ncc4c(c3c2)n(-c2cccnc2C)c(=O)n4C)cnc1C` [Example 2.22, 8-(5-Ethoxy-6-methyl-pyridin-3-yl)-3-methyl-1-(2-methyl-pyridin-3-yl)-1,3-dihydro-imidazo[4,5-c]quinolin-2-one], the IC50 worked out at 201 nM.

Consider `CCNc1cc(-c2ccc3ncc4c(c3c2)n(-c2ccc(F)nc2C)c(=O)n4C)cnc1CO` [Example 7.9, 8-(5-Ethylamino-6-hydroxymethyl-pyridin-3-yl)-1-(6-fluoro-2-methyl-pyridin-3-yl)-3-methyl-1,3-dihydro-imidazo[4,5-c]quinolin-2-one], for which the IC50 was 69 nM.

For the compound `CNc1cc(-c2ccc3ncc4c(c3c2)n(-c2ccc(F)nc2C)c(=O)n4C)cnc1CO` [Example 7.11, 1-(6-Fluoro-2-methyl-pyridin-3-yl)-8-(6-hydroxymethyl-5-methylamino-pyridin-3-yl)-3-methyl-1,3-dihydro-imidazo[4,5-c]quinolin-2-one], the IC50 was found to be 41 nM.

For `CNc1ncc(-c2ccc3ncc4c(c3c2)n(-c2ccc(F)nc2C)c(=O)n4C)cc1F` [Example 7.12, 8-(5-Fluoro-6-methylamino-pyridin-3-yl)-1-(6-fluoro-2-methyl-pyridin-3-yl)-3-methyl-1,3-dihydro-imidazo[4,5-c]quinolin-2-one], the IC50 is 265 nM.

Take `CNc1ncc(-c2ccc3ncc4c(c3c2)n(-c2ccc(F)nc2C)c(=O)n4C)cc1C(F)(F)F` [Example 7.13, 1-(6-Fluoro-2-methyl-pyridin-3-yl)-3-methyl-8-(6-methylamino-5-trifluoromethyl-pyridin-3-yl)-1,3-dihydro-imidazo[4,5-c]quinolin-2-one]: the IC50 stood at 42 nM.

With `CNC(=O)c1cc(-c2ccc3ncc4c(c3c2)n(-c2ccc(F)nc2C)c(=O)n4C)cnc1N` [Example 7.14, 2-Amino-5-[1-(6-fluoro-2-methyl-pyridin-3-yl)-3-methyl-2-oxo-2,3-dihydro-1H-imidazo[4,5-c]quinolin-8-yl]-N-methyl-nicotinamide], the IC50 was determined as 14 nM.

For the compound `CCOCc1cc(-c2ccc3ncc4c(c3c2)n(-c2ccc(F)nc2C)c(=O)n4C)cnc1N` [Example 7.15, 8-(6-Amino-5-ethoxymethyl-pyridin-3-yl)-1-(6-fluoro-2-methyl-pyridin-3-yl)-3-methyl-1,3-dihydro-imidazo[4,5-c]quinolin-2-one], the IC50 worked out at 194 nM.

Turning to `Cc1nc(F)ccc1-n1c(=O)n(C)c2cnc3ccc(-c4cncc(N)c4)cc3c21` [Example 7.16, 8-(5-Amino-pyridin-3-yl)-1-(6-fluoro-2-methyl-pyridin-3-yl)-3-methyl-1,3-dihydro-imidazo[4,5-c]quinolin-2-one], the IC50 was found to be 236 nM.

In the case of `Cc1nc(F)ccc1-n1c(=O)n(C)c2cnc3ccc(-c4cnc(N)c(CO)c4)cc3c21` [Example 7.17, 8-(6-Amino-5-hydroxymethyl-pyridin-3-yl)-1-(6-fluoro-2-methyl-pyridin-3-yl)-3-methyl-1,3-dihydro-imidazo[4,5-c]quinolin-2-one], the IC50 is 188 nM.

With `COCCOc1cc(-c2ccc3ncc4c(c3c2)n(-c2ccc(OC)nc2OC)c(=O)n4C)cnc1C` [Example 8.9, 1-(2,6-Dimethoxy-pyridin-3-yl)-8-[5-(2-methoxy-ethoxy)-6-methyl-pyridin-3-yl]-3-methyl-1,3-dihydro-imidazo[4,5-c]quinolin-2-one], the IC50 was 43 nM.

For the compound `COc1ccc(-n2c(=O)n(C)c3cnc4ccc(-c5ccc6nccn6c5)cc4c32)c(OC)n1` [Example 8.10, 1-(2,6-Dimethoxy-pyridin-3-yl)-8-imidazo[1,2-a]pyridin-6-yl-3-methyl-1,3-dihydro-imidazo[4,5-c]quinolin-2-one], the IC50 worked out at 1340 nM.

`COCc1ncc(-c2ccc3ncc4c(c3c2)n(-c2ccc(OC)nc2OC)c(=O)n4C)cc1OC` [Example 8.12, 1-(2,6-Dimethoxy-pyridin-3-yl)-8-(5-methoxy-6-methoxymethyl-pyridin-3-yl)-3-methyl-1,3-dihydro-imidazo[4,5-c]quinolin-2-one]: the IC50 was determined as 212 nM.

On to `COc1nc(N2CCNCC2)ccc1-n1c(=O)n(C)c2cnc3ccc(-c4cnc(N(C)C)nc4)cc3c21` [Example 9.4, 8-(2-Dimethylamino-pyrimidin-5-yl)-1-(2-methoxy-6-piperazin-1-yl-pyridin-3-yl)-3-methyl-1,3-dihydro-imidazo[4,5-c]quinolin-2-one], for which the IC50 stood at 142 nM.

As to `CCNc1cc(-c2ccc3ncc4c(c3c2)n(-c2ccc(OC)nc2C)c(=O)n4C)cnc1C` [Example 11.7, 8-(5-Ethylamino-6-methyl-pyridin-3-yl)-1-(6-methoxy-2-methyl-pyridin-3-yl)-3-methyl-1,3-dihydro-imidazo[4,5-c]quinolin-2-one], the IC50 is 6 nM.

Turning to `COc1ccc(-n2c(=O)n(C)c3cnc4ccc(-c5cnc(CO)c(OC)c5)cc4c32)c(C)n1` [Example 11.8, 8-(6-Hydroxymethyl-5-methoxy-pyridin-3-yl)-1-(6-methoxy-2-methyl-pyridin-3-yl)-3-methyl-1,3-dihydro-imidazo[4,5-c]quinolin-2-one], the IC50 is 2590 nM.

`CCN(C)c1ccc(-n2c(=O)n(C)c3cnc4ccc(-c5ccc(NC)nc5)cc4c32)c(C)n1` [Example 12.1, 1-[6-(Ethyl-methyl-amino)-2-methyl-pyridin-3-yl]-3-methyl-8-(6-methylamino-pyridin-3-yl)-1,3-dihydro-imidazo[4,5-c]quinolin-2-one]: the IC50 turned out to be 154 nM.

On to `CCNc1cc(-c2ccc3ncc4c(c3c2)n(-c2ccc(N(C)CC)nc2C)c(=O)n4C)cnc1C` [Example 12.2, 8-(5-Ethylamino-6-methyl-pyridin-3-yl)-1-[6-(ethyl-methyl-amino)-2-methyl-pyridin-3-yl]-3-methyl-1,3-dihydro-imidazo[4,5-c]quinolin-2-one], for which the IC50 was 49 nM.

For the compound `CCOc1ccc(-c2ccc3ncc4c(c3c2)n(-c2ccc(OCCOC)nc2C)c(=O)n4C)cn1` [Example 13.1, 8-(6-Ethoxy-pyridin-3-yl)-1-[6-(2-methoxy-ethoxy)-2-methyl-pyridin-3-yl]-3-methyl-1,3-dihydro-imidazo[4,5-c]quinolin-2-one], the IC50 is 1950 nM.

As for `COCCOc1ccc(-n2c(=O)n(C)c3cnc4ccc(-c5cnc(N)c(C(F)(F)F)c5)cc4c32)c(C)n1` [Example 13.2, 8-(6-Amino-5-trifluoromethyl-pyridin-3-yl)-1-[6-(2-methoxy-ethoxy)-2-methyl-pyridin-3-yl]-3-methyl-1,3-dihydro-imidazo[4,5-c]quinolin-2-one], the IC50 is 20 nM.

`CNc1ccc(-c2ccc3ncc4c(c3c2)n(-c2ccc(OCCOC)nc2C)c(=O)n4C)cn1` [Example 13.3, 1-[6-(2-Methoxy-ethoxy)-2-methyl-pyridin-3-yl]-3-methyl-8-(6-methylamino-pyridin-3-yl)-1,3-dihydro-imidazo[4,5-c]quinolin-2-one]: the IC50 was found to be 502 nM.

The same assay, now with this note: read-out: PI3Kbeta/IC50.
With `COc1ccc(-c2ccc3ncc4c(c3c2)n(-c2cccnc2OC)c(=O)n4C)cn1` [Example 1.1, 1-(2-Methoxy-pyridin-3-yl)-8-(6-methoxy-pyridin-3-yl)-3-methyl-1,3-dihydro-imidazo[4,5-c]quinolin-2-one], the IC50 amounted to 202 nM.

Turning to `COc1ncccc1-n1c(=O)n(C)c2cnc3ccc(-c4cnc(N)c(C(F)(F)F)c4)cc3c21` [Example 1.3, 8-(6-Amino-5-trifluoromethyl-pyridin-3-yl)-1-(2-methoxy-pyridin-3-yl)-3-methyl-1,3-dihydro-imidazo[4,5-c]quinolin-2-one], the IC50 was determined as 23 nM.

With `CNc1ccc(-c2ccc3ncc4c(c3c2)n(-c2cccnc2OC)c(=O)n4C)cn1` [Example 1.4, 1-(2-Methoxy-pyridin-3-yl)-3-methyl-8-(6-methylamino-pyridin-3-yl)-1,3-dihydro-imidazo[4,5-c]quinolin-2-one], the IC50 came out at 374 nM.

Turning to `CCOc1ccc(-c2ccc3ncc4c(c3c2)n(-c2cccnc2OC)c(=O)n4C)cn1` [Example 1.5, 8-(6-Ethoxy-pyridin-3-yl)-1-(2-methoxy-pyridin-3-yl)-3-methyl-1,3-dihydro-imidazo[4,5-c]quinolin-2-one], the IC50 came out at 505 nM.

As for `CCOc1ccc(-c2ccc3ncc4c(c3c2)n(-c2cccnc2C)c(=O)n4C)cn1` [Example 2.1, 8-(6-Ethoxy-pyridin-3-yl)-3-methyl-1-(2-methyl-pyridin-3-yl)-1,3-dihydro-imidazo[4,5-c]quinolin-2-one], the IC50 is 580 nM.

With `CNc1ncc(-c2ccc3ncc4c(c3c2)n(-c2cccnc2C)c(=O)n4C)cn1` [Example 2.2, 3-Methyl-8-(2-methylamino-pyrimidin-5-yl)-1-(2-methyl-pyridin-3-yl)-1,3-dihydro-imidazo[4,5-c]quinolin-2-one], the IC50 came out at 165 nM.

Turning to `Cc1ncccc1-n1c(=O)n(C)c2cnc3ccc(-c4cnc5c(ccn5C)c4)cc3c21` [Example 2.14, 3-Methyl-1-(2-methyl-pyridin-3-yl)-8-(1-methyl-1H-pyrrolo[2,3-b]pyridin-5-yl)-1,3-dihydro-imidazo[4,5-c]quinolin-2-one], the IC50 is 315 nM.

As for `COc1ccc(-c2ccc3ncc4c(c3c2)n(-c2cccnc2)c(=O)n4C)cc1OC` [Example 5.2, 8-(3,4-Dimethoxy-phenyl)-3-methyl-1-pyridin-3-yl-1,3-dihydro-imidazo[4,5-c]quinolin-2-one], the IC50 was determined as 295 nM.

As to `COc1ccc(-c2ccc3ncc4c(c3c2)n(-c2cccnc2)c(=O)n4C)cn1` [Example 5.4, 8-(6-Methoxy-pyridin-3-yl)-3-methyl-1-pyridin-3-yl-1,3-dihydro-imidazo[4,5-c]quinolin-2-one], the IC50 worked out at 263 nM.

Regarding `COc1ccc(-n2c(=O)n(C)c3cnc4ccc(-c5cnc(N)c(C(F)(F)F)c5)cc4c32)c(OC)n1` [Example 8.1, 8-(6-Amino-5-trifluoromethyl-pyridin-3-yl)-1-(2,6-dimethoxy-pyridin-3-yl)-3-methyl-1,3-dihydro-imidazo[4,5-c]quinolin-2-one], the IC50 is 23 nM.
